# Assay results taken from ChEMBL document CHEMBL4837246 (J Med Chem, 2021).
# Experiments:
# in vivo [1] = settings: Wistar, rat, iv, 0.3 mg/kg
# in vivo [2] = settings: mouse, iv, 0.3 mg/kg
# in vivo [3] = settings: Wistar, rat, iv, 0.3 mg/kg; remark: listed apart in the source
# in vivo [4] = settings: mouse, iv, 0.3 mg/kg; remark: listed apart in the source
# in vivo [5] = settings: Wistar, rat, iv, 0.3 mg/kg; remark: listed apart in the source
# in vivo [6] = settings: mouse, iv, 0.3 mg/kg; remark: listed apart in the source
# in vivo [7] = settings: Wistar, rat, po, 0.6 mg/kg
# in vivo [8] = settings: Wistar, rat, po, 0.6 mg/kg; remark: listed apart in the source
compound,measurement,setting,value
FC(F)c1cncc(-c2ccc3ncc4nnc(C5=CCCOCC5)n4c3c2)c1,clearance at 24 h,in vivo [1],36.7 mL/min/kg
same,clearance at 24 h,in vivo [2],135 mL/min/kg
same,Vd at 24 h,in vivo [3],1.8 L/kg
same,Vd at 24 h,in vivo [4],3.7 L/kg
same,half-life at 24 h,in vivo [5],50.4 min
same,half-life at 24 h,in vivo [6],40.8 min
same,bioavailability at 24 h,in vivo [7],22%
same,half-life at 24 h,in vivo [8],240 min
